Read-outs that look alike come from different tables or passages of the source.
Tests used:
ACHN (Renal Cancer) = experiment: NCI five-dose SRB assay; type: cell-based; conditions: Homo sapiens, 48 h
DU-145 (Prostate Cancer) = experiment: NCI five-dose SRB assay; type: cell-based; conditions: Homo sapiens, 48 h
IGROV-1 (Ovarian Cancer) = experiment: NCI five-dose SRB assay; type: cell-based; conditions: Homo sapiens, 48 h
[1] = test system: NCI-H522 (Non-Small Cell Lung Cancer); experiment: NCI one-dose SRB assay; conditions: 10 μM, 48 h
Experimental: Primary anticancer assays (Table 3) on a panel of 60 cancer cell lines at one dose-assay (10^−5 M) were performed according to the NCI protocol, as described elsewhere [31, 32, 33, 34, 35].
(§1) A primary anticancer assay was performed on a panel of approximately sixty human tumor cell lines derived from nine neoplastic diseases, in accordance with the protocol of the Drug Evaluation Branch, National Cancer Institute, Bethesda [31, 32, 33, 34, 35]. Tested compounds were added to the culture at a single concentration (10^−5 M) and the cultures were incubated for 48 h. End point determinations were made with a protein binding dye, Sulphorhodamine B (SRB). […] The percentage growth was evaluated spectrophotometrically versus controls not treated with test agents.

[2] = test system: full panel of human tumor cell lines (MG_MID); experiment: NCI five-dose SRB assay, full panel; type: cell-based
Experimental: Using absorbance measurements [time zero (Tz), control growth in the absence of drug (C), and test growth in the presence of drug (Ti)], the percentage growth was calculated for each drug concentration. Percentage growth inhibition was calculated as:
Dose response parameters (GI50, TGI, LC50) were calculated for each compound. […] The drug concentration resulting in total growth inhibition (TGI) was calculated from Ti = Tz. […] Values were calculated for each of these parameters if the level of activity was reached; however, if the effect was not reached or was excessive, the value for that parameter was expressed as more or less than the maximum or minimum concentration tested.

U251 (CNS Cancer) [3] = experiment: NCI one-dose SRB assay; conditions: 10 μM, 48 h
Experimental: as §1

PC-3 (Prostate Cancer) = experiment: NCI five-dose SRB assay; type: cell-based; conditions: Homo sapiens, 48 h
OVCAR-5 (Ovarian Cancer) = experiment: NCI five-dose SRB assay; type: cell-based; conditions: Homo sapiens, 48 h
MCF-7 cells [4] = experiment: Clonogenic assay; type: cell-based, human; conditions: 10 days
Experimental: This assay essentially tests every cell in the population for its ability to undergo “unlimited” division. […] At 1 µM concentration, it reduced the ability of the MCF-7 single cell to grow into a colony to 36%. […] With a concentration equivalent to 10 µM of the compound 4, the DMSO increased the cell’s ability to grow in colony.
MCF-7 cells were seeded in triplicate in 6-well plates (CytoONE, STARLAB International GmbH, Germany) at a density of 500 cells per well. After 24 h incubation, the compound 4 was added in 1 and 10 μM concentrations and cells were treated for 10 days. Colonies containing ≥ 50 cells were fixed with 50% (v/v) methanol in the PBS and stained with crystal violet (Sigma-Aldrich, Burlington, MA, USA). Stained colonies were counted and expressed as a fraction of the untreated control.

OVCAR-3 (Ovarian Cancer) = experiment: NCI five-dose SRB assay; type: cell-based; conditions: Homo sapiens, 48 h
[5] = test system: Leukemia cell lines (MG_MID); experiment: NCI five-dose SRB assay; type: cell-based; conditions: Homo sapiens, 48 h
MOLT-4 (Leukemia) = experiment: NCI five-dose SRB assay; type: cell-based; conditions: Homo sapiens, 48 h
[6] = test system: MDA-MB-231/ATCC (Breast Cancer); experiment: NCI five-dose SRB assay; type: cell-based; conditions: Homo sapiens, 48 h
MDA-MB-435 (Melanoma) = experiment: NCI five-dose SRB assay; type: cell-based; conditions: Homo sapiens, 48 h
SNB-75 (CNS Cancer) = experiment: NCI five-dose SRB assay; type: cell-based; conditions: Homo sapiens, 48 h
Jurkat (leukemia) = experiment: MTT assay of cell viability; conditions: Homo sapiens, 72 h
U251 (CNS Cancer) [7] = experiment: NCI five-dose SRB assay; type: cell-based; conditions: Homo sapiens, U-251, 48 h
MCF-7 cells [8] = experiment: Chemical synthetic lethality: MTT after preincubation with BRCA1 inhibitor Bractoppin; type: cell-based; conditions: Homo sapiens, MCF7; MCF-7, 30 min preincubation with Bractoppin, 72 h MTT; read-out: IC50 in the case of BRCA1 inhibition
SK-MEL-2 (Melanoma) = experiment: NCI five-dose SRB assay; type: cell-based; conditions: Homo sapiens, 48 h
[9] = test system: HCT-116 p53 (−/−) colon cancer cells; experiment: MTT assay of cell viability; conditions: Homo sapiens, HCT-116, 72 h
Source text: The cell lines used in our work were kindly provided by a Collection at the Institute of Molecular Biology and Genetics, National Academy of Sciences of Ukraine (Kyiv, Ukraine).

CAKI-1 (Renal Cancer) = experiment: NCI five-dose SRB assay; type: cell-based; conditions: Homo sapiens, 48 h
HCT-116 (Colon Cancer) = experiment: NCI five-dose SRB assay; type: cell-based; conditions: Homo sapiens, 48 h
SK-OV-3 (Ovarian Cancer) = experiment: NCI five-dose SRB assay; type: cell-based; conditions: Homo sapiens, 48 h
[10] = test system: CNS Cancer cell lines (MG_MID); experiment: NCI five-dose SRB assay; type: cell-based; conditions: Homo sapiens, 48 h
HT29 (Colon Cancer) = experiment: NCI one-dose SRB assay; conditions: 10 μM, 48 h
Experimental: Tested compounds were added to the culture at a single concentration (10^−5 M) and the cultures were incubated for 48 h. End point determinations were made with a protein binding dye, Sulphorhodamine B (SRB). […] The percentage growth was evaluated spectrophotometrically versus controls not treated with test agents.

[11] = test system: NCI-H460 (Non-Small Cell Lung Cancer); experiment: NCI five-dose SRB assay; type: cell-based; conditions: Homo sapiens, 48 h
SW-629 (Colon Cancer) = experiment: NCI five-dose SRB assay; type: cell-based; conditions: Homo sapiens, 48 h
TK-10 (Renal Cancer) = experiment: NCI five-dose SRB assay; type: cell-based; conditions: Homo sapiens, 48 h
SF-539 (CNS Cancer) = experiment: NCI one-dose SRB assay; conditions: 10 μM, 48 h
Experimental: as §1

[12] = test system: Breast Cancer cell lines (MG_MID); experiment: NCI five-dose SRB assay; type: cell-based; conditions: Homo sapiens, 48 h
SF-268 (CNS Cancer) = experiment: NCI five-dose SRB assay; type: cell-based; conditions: Homo sapiens, 48 h
MALME-3M (Melanoma) = experiment: NCI five-dose SRB assay; type: cell-based; conditions: Homo sapiens, 48 h
SF-295 (CNS Cancer) = experiment: NCI five-dose SRB assay; type: cell-based; conditions: Homo sapiens, 48 h
RPMI-8226 (Leukemia) = experiment: NCI five-dose SRB assay; type: cell-based; conditions: Homo sapiens, 48 h
M14 (Melanoma) = experiment: NCI five-dose SRB assay; type: cell-based; conditions: Homo sapiens, 48 h
[13] = test system: Non-Small Cell Lung Cancer cell lines (MG_MID); experiment: NCI five-dose SRB assay; type: cell-based; conditions: Homo sapiens, 48 h
SN12C (Renal Cancer) = experiment: NCI five-dose SRB assay; type: cell-based; conditions: Homo sapiens, 48 h

CCOC(=O)c1ccc(NC(=O)CSC(CC(=O)c2sc(Nc3ccccn3)nc2C)c2ccccc2F)cc1 (centres unmarked) [Compound 4, Ethyl 4-[[2-[1-(2-Fluorophenyl)-3-[4-methyl-2-(2-pyridylamino)thiazol-5-yl]-3-oxopropyl]sulfanylacetyl]amino]benzoate]
GI50 (ACHN (Renal Cancer)): 45.6 µM
GI50 (DU-145 (Prostate Cancer)): 67.2 µM
GI50 (IGROV-1 (Ovarian Cancer)): 12.1 µM
Growth % [1]: −22.73%
GI50 ([2]; Homo sapiens, RPMI-8226, NCI-H226, SNB-75, SF 539, M14, MDA-MB-435, UO-31, RXF 393, MDA-MB-468, read-out: active concentration range (GI50) towards most sensitive lines): 2.52 to 8.29 µM
GI50 ([2]; Homo sapiens, full panel MG_MID (average GI50), 48 h, read-out: GI50): 31.7 µM
LC50 (concentration giving 50% net tumour cell kill) ([2]; Homo sapiens, full panel, mainly): > 100 µM
TGI ([2]; full panel, mainly): > 100 µM
Growth % (U251 (CNS Cancer) [3]): −70.41%
GI50 (PC-3 (Prostate Cancer)): 23.8 µM
GI50 (OVCAR-5 (Ovarian Cancer)): 74.4 µM
ability of single cell to grow into a colony (compared with control) (MCF-7 cells [4]; MCF-7, 1 µM): 36%
colony formation (MCF-7 cells [4]; MCF-7, 10 µM): No colony formation was observed
GI50 (OVCAR-3 (Ovarian Cancer)): 31.7 µM
GI50 [5]: 22.5 µM
GI50 (MOLT-4 (Leukemia)): 32.2 µM
GI50 [6]: 19.3 µM
GI50 (MDA-MB-435 (Melanoma)): 26.3 µM
GI50 (SNB-75 (CNS Cancer)): 3.58 µM
IC50 (Jurkat (leukemia)): 5.36 ± 0.16 µM
GI50 (U251 (CNS Cancer) [7]): 47.8 µM
IC50 (MCF-7 cells [8]): 700 nM
GI50 (SK-MEL-2 (Melanoma)): 44.9 µM
IC50 [9]: 3.43 ± 0.9 µM
GI50 (CAKI-1 (Renal Cancer)): 11.5 µM
GI50 (HCT-116 (Colon Cancer)): 23 µM
GI50 (SK-OV-3 (Ovarian Cancer)): 26 µM
GI50 [10]: 32.7 µM
Growth % (HT29 (Colon Cancer)): −28.32%
GI50 [11]: 31.2 µM
GI50 (SW-629 (Colon Cancer)): 75.3 µM
GI50 (TK-10 (Renal Cancer)): 82.3 µM
Growth % (SF-539 (CNS Cancer)): −27.26%
GI50 [12]: 14.4 µM
GI50 (SF-268 (CNS Cancer)): 43.1 µM
GI50 (MALME-3M (Melanoma)): 25.4 µM
GI50 (SF-295 (CNS Cancer)): 32.2 µM
GI50 (RPMI-8226 (Leukemia)): 8.29 µM
GI50 (M14 (Melanoma)): 19.4 µM
GI50 [13]: 27.6 µM
GI50 (SN12C (Renal Cancer)): 28 µM

Reference: publication PMC9570594, “Development of Novel Pyridine-Thiazole Hybrid Molecules as Potential Anticancer Agents” (Molecules, 2022)
